Test results from US11160796B2, “Anti-androgens for the treatment of non-metastatic castration-resistant prostate cancer” (priority 2017, dated 2021).
Entries after “also recorded” stand apart in the source; their conditions may differ.

Legend:
LNCaP/AR cells [1] = conditions: literature; cited from earlier work
[2] = Physicochemical description (ionization, solubility)
Text: The Chemical name is (4-[7-(6-Cyano-5-trifluoromethylpyridin-3-yl)-8-oxo-6-thioxo-5,7-diazaspiro[3.4]oct-5-yl]-2-fluoro-N-methylbenzamide). Apalutamide is a white to slightly yellow powder.

[3] = system: castration-resistant LNCaP/AR-Luc xenograft model; conditions: non-castrate hormone-sensitive and bicalutamide-resistant models (Clegg et al.); cited from earlier work
human CYP2B6 and CYP3A4 = conditions: hepatocytes
[4] = In vivo rat (bone marrow) micronucleus assay
P-gp = P-gp (Homo sapiens, UniProt P08183); test: In vitro transporter substrate assessment: P-gp
P-gp, sequence (P08183 whole entry): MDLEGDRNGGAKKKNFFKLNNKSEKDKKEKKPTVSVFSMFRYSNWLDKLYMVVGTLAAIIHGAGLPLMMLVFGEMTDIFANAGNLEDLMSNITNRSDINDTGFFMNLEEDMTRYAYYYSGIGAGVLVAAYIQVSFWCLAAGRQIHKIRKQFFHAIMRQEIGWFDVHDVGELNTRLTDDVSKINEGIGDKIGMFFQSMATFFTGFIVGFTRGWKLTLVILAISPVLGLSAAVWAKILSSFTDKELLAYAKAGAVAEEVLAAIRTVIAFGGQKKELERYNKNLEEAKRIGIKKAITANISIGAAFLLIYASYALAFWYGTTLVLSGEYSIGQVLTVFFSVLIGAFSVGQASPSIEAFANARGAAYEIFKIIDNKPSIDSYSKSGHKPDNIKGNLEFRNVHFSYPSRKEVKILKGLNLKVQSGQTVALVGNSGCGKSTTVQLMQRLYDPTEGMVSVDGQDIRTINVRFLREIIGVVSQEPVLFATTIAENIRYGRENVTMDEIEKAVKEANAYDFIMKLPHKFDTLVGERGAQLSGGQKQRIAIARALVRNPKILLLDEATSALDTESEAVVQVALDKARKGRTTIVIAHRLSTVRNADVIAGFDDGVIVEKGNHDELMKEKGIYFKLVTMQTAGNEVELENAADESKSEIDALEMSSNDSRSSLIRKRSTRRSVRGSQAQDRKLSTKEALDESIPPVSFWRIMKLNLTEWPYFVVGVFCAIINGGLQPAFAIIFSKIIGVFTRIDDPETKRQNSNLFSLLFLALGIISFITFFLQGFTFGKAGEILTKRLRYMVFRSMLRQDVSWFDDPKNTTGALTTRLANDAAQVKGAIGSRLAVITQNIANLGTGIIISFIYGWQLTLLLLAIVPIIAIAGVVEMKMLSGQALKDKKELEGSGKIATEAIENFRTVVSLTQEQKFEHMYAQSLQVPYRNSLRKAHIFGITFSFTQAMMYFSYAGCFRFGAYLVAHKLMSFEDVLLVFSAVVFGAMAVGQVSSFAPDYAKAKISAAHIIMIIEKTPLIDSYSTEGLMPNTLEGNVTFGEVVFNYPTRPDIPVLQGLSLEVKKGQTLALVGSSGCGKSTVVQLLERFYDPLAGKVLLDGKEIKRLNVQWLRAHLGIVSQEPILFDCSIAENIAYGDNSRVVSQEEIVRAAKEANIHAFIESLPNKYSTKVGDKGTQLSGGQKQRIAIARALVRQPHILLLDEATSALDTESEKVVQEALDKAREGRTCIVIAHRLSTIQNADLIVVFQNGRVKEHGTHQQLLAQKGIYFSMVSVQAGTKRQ

[5] = target: T1, organic anion transporter 1 (OAT1) (Homo sapiens, UniProt Q4U2R8); test: In vitro transporter inhibition: OAT1
T1 sequence (Q4U2R8 1-563): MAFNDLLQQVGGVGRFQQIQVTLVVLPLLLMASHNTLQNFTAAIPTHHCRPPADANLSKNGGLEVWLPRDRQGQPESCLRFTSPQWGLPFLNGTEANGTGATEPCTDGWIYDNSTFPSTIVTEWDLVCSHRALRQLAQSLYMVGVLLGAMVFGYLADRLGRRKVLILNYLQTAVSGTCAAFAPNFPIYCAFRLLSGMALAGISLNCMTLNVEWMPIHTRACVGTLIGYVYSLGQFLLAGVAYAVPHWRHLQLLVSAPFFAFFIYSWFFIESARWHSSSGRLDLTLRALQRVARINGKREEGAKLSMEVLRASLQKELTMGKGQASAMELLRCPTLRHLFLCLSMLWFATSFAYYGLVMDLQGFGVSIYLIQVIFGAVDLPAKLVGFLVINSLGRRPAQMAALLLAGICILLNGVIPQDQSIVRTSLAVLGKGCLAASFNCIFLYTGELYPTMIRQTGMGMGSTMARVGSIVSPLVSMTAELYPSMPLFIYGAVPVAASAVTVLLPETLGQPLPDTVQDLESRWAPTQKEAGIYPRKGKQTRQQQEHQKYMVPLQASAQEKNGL

LNCaP/AR cells [6] = test: In vitro model of CRPC (AR-over-expressing prostate cancer cells); assay type: cell-based
CYP1A2 and CYP2D6 = test: In vitro effect on CYP1A2 and CYP2D6; conditions: therapeutically relevant concentrations
[7] = Bacterial reverse mutation (Ames) assay
[8] = target: T2, human cytochrome P450 isoform CYP2C8 (Homo sapiens, UniProt P10632); test: Cytochrome P450 inhibition: CYP2C8; assay type: in vitro ADME
T2 sequence (P10632 1-490): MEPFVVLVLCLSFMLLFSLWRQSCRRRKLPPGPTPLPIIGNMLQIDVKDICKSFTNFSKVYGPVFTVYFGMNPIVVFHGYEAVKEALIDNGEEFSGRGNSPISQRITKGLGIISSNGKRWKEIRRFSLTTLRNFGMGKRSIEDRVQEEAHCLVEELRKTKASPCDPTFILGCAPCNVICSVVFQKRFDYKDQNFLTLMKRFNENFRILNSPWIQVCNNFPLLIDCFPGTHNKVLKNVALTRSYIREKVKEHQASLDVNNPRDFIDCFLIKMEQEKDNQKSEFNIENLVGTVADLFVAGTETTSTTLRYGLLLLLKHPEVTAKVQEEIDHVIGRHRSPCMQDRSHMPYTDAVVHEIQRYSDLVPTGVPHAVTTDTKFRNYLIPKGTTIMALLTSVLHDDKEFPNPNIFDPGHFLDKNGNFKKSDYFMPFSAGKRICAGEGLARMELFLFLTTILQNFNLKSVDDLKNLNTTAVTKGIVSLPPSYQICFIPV

[9] = system: T3, major CYP isoforms other than CYP2C8; test: Cytochrome P450 inhibition: major isoforms; assay type: in vitro ADME; conditions: human; the other major isoforms (other than CYP2C8)
T3 construct: IC50; other: the other major isoforms (other than CYP2C8)

[10] = Preclinical pharmacokinetic profile; assay type: in vivo
in vivo = conditions: dog
Text: Single-dose and repeat-dose toxicology studies up to 13 weeks of dosing have been conducted in male Sprague Dawley (SD) rats and male Beagle dogs (repeat-dose studies only).

[11] = Incubation with liver S9 fraction and liver microsomes; assay type: in vitro ADME; conditions: incubated for up to 120 minutes; rat, dog, and human
Text: The primary in vivo metabolites were formed by N-demethylation and amide hydrolysis in the rat and dog.

CYP2C8 = target: T4, CYP2C8 (Homo sapiens, UniProt P10632); test: Drug-drug interaction study, cocktail approach: CYP2C8 substrate; conditions: in vivo
T4 construct: from tissue; host or cells: human subjects, in vivo (clinical pharmacology)
T4 sequence (P10632 1-490): T2 sequence (P10632 1-490)

CYP2B6 and CYP2C8 = test: In vitro CYP inhibition: CYP2B6 and CYP2C8

CNC(=O)c1ccc(N2C(=S)N(c3cnc(C#N)c(C(F)(F)F)c3)C(=O)C23CCC3)cc1F [apalutamide, 4-[7-(6-cyano-5-trifluoromethylpyridin-3-yl)-8-oxo-6-thioxo-5,7-diazaspiro[3.4]oct-5-yl]-2-fluoro-N-methylbenzamide]
agonist activity in the context of AR overexpression (LNCaP/AR cells [1]): lacks the partial agonist activity
solubility ([2]; aqueous media over a wide range of pH values): practically insoluble
ionization ([2]; relevant physiological pH condition): not ionizable
tumor regression in human prostate cancer xenograft models [3]: partial or complete tumor regression
CYP3A4 and CYP2B6 induction (human CYP2B6 and CYP3A4): moderate to strong CYP3A4 and CYP2B6 inducers
genotoxicity, in vivo rat micronucleus assay [4]: not genotoxic
substrate for P-gp (P-gp): substrates for P-gp
inhibition of OAT1 [5]: No in vitro inhibition; also recorded: do not inhibit
agonist properties in an in vitro model of CRPC (LNCaP/AR cells [6]; LNCaP/AR cells): no significant agonist properties
Gene transcription of the androgen-driven genes, PSA and TMPRSS2 (LNCaP/AR cells [6]; in vitro): inhibited
effect on CYP1A2 and CYP2D6 (CYP1A2 and CYP2D6): do not affect
mutations in the bacterial reverse mutation (Ames) assay [7]: did not induce mutations
IC50 [8]: 13.9 µM
IC50 [9]: > 25 µM
clearance ([10]; preclinical): low clearance
volume of distribution ([10]; preclinical): moderate volume of distribution
bioavailability ([10]; when dosed with a lipid-based formulation): high bioavailability
increases in cholesterol compared to controls (in vivo): up to 50%
NOAEL at 13 weeks (in vivo; male, Beagle): 5 mg/kg/day
NOAEL at 28 days (in vivo; male, Beagle): 10 mg/kg/day
dose at which seizures necessitating humane euthanasia occurred (in vivo; male, Beagle): ≥ 25 mg/kg/day
dose with reproductive system findings (in vivo; male, Beagle): > 2.5 mg/kg/day
AUC(0-t) (in vivo; male, Beagle, 10 mg/kg/day): 290 µg·h/mL
Cmax (in vivo; male, Beagle, 10 mg/kg/day): 13200 ng/mL
turnover [11]: very low turnover
changes in exposure to the CYP2C8 substrate (CYP2C8): did not cause clinically meaningful changes
inhibition of CYP2B6 and CYP2C8 (CYP2B6 and CYP2C8): moderate inhibitors
